Assay results taken from ChEMBL document CHEMBL3822394, “Discovery of a Potent, Selective, Orally Bioavailable, and Efficacious Novel 2-(Pyrazol-4-ylamino)-pyrimidine Inhibitor of the Insulin-like Growth Factor-1 Receptor (IGF-1R)” (J Med Chem, 2016).
pIC50: −log10 of the molar value. ≈ marks a conversion by molar mass, not a printed value. Each block holds one compound with its values, some of them ahead of it. Calls of active or inactive are those of the source. The rule behind the calls is not given here.

Columns and labels:
[1] = Thermodynamic solubility of the compound in aqueous phosphate buffer at pH 7.4 at 25 degC after 24 hrs by LC-UV method; type: physicochemical; conditions: read-out: Therm_solubility
[2] = Octanol-buffer partition co-efficient, log D of the compound at pH 7.4 by shake-flask method; type: physicochemical
[3] = Clearance in Han Wistar rat blood at 2 or 4 umol/kg, iv or 10 umol/kg, po; type: ADME, organism-based; conditions: whole blood
[4] = Intrinsic clearance in rat hepatocytes assessed per 10^6 cells; type: ADME, cell-based, Hepatocyte; conditions: read-out: CLH
[5] = Oral bioavailability in Han Wistar rat blood at 10 umol/kg; type: ADME, organism-based; conditions: whole blood
[6] = Volume of distribution at steady state in Han Wistar rat blood at 2 or 4 umol/kg, iv or 10 umol/kg, po; type: ADME, organism-based; conditions: whole blood, read-out: Vdss
[7] = Fraction unbound in rat plasma by equilibrium dialysis; type: ADME, cell-free
[8] = biological target: Cyclin-dependent kinase 2 (Homo sapiens, UniProt P24941)
Cytochrome P450 3A4 = Cytochrome P450 3A4 (Homo sapiens, UniProt P08684)
Sequence of Cytochrome P450 3A4 (P08684 whole entry): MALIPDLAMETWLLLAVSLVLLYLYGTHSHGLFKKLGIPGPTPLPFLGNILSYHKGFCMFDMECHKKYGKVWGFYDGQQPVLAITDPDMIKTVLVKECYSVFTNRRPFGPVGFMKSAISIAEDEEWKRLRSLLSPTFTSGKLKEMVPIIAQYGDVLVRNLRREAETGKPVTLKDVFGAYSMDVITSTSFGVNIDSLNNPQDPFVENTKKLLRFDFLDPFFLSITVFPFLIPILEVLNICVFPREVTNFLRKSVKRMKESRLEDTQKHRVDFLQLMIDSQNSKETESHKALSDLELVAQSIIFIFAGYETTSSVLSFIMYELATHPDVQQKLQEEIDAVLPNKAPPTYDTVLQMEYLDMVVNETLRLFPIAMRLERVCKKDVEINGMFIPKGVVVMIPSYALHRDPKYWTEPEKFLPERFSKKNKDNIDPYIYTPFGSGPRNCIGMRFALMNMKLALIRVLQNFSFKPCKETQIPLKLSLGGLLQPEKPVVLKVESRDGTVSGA

[9] = Oral bioavailability in Han Wistar rat plasma at 10 umol/kg; type: ADME, organism-based
[10] = Clearance in Han Wistar rat plasma at 2 or 4 umol/kg, iv or 10 umol/kg, po; type: ADME, organism-based
[11] = Volume of distribution at steady state in Han Wistar rat plasma at 2 or 4 umol/kg, iv or 10 umol/kg, po; type: ADME, organism-based; conditions: read-out: Vdss
[12] = Intrinsic clearance in dog hepatocytes assessed per 10^6 cells; type: ADME, cell-based, Canis lupus familiaris, Hepatocyte; conditions: read-out: CLH
[13] = Intrinsic clearance in human hepatocytes assessed per 10^6 cells; type: ADME, cell-based, Hepatocyte; conditions: read-out: CLH
[14] = Fraction unbound in dog plasma by equilibrium dialysis; type: ADME, cell-free, Canis lupus familiaris
[15] = biological target: Cyclin-dependent kinase 9 (Homo sapiens, UniProt P50750)
Sequence of Cyclin-dependent kinase 9 (P50750 whole entry): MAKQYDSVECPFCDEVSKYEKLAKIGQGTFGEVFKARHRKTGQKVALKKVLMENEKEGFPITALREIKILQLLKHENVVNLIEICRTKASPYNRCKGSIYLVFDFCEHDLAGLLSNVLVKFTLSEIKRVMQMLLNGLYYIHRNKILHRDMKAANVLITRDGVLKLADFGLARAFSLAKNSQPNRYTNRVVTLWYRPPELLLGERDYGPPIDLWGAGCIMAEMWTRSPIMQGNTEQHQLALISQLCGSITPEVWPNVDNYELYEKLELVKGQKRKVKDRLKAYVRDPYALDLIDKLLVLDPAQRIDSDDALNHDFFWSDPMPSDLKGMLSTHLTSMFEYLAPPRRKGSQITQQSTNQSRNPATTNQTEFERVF

[16] = biological target: Cyclin-dependent kinase 1 (Homo sapiens, UniProt P06493)
Sequence of Cyclin-dependent kinase 1 (P06493 whole entry): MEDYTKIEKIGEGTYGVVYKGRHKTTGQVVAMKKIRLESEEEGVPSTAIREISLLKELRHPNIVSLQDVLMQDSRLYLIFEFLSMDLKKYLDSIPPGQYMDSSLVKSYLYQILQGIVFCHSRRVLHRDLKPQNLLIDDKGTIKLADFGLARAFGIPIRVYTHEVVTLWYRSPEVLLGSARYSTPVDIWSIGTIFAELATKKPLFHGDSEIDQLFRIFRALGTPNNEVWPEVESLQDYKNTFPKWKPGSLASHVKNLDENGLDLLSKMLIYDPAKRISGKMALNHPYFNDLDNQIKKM

[17] = biological target: Cyclin-dependent kinase 7 (Homo sapiens, UniProt P50613)
Sequence of Cyclin-dependent kinase 7 (P50613 whole entry): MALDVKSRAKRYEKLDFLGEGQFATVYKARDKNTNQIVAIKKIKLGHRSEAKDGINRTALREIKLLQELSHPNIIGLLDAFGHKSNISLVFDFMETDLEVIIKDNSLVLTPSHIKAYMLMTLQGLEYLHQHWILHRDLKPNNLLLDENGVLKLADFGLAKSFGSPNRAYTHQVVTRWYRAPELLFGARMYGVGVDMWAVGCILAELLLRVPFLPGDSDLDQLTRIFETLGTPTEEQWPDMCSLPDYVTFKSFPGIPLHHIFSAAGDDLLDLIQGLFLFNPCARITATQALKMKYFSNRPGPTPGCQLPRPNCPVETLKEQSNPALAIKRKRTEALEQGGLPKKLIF

[18] = biological target: Cyclin-dependent kinase 8 (Homo sapiens, UniProt P49336)
Sequence of Cyclin-dependent kinase 8 (P49336 whole entry): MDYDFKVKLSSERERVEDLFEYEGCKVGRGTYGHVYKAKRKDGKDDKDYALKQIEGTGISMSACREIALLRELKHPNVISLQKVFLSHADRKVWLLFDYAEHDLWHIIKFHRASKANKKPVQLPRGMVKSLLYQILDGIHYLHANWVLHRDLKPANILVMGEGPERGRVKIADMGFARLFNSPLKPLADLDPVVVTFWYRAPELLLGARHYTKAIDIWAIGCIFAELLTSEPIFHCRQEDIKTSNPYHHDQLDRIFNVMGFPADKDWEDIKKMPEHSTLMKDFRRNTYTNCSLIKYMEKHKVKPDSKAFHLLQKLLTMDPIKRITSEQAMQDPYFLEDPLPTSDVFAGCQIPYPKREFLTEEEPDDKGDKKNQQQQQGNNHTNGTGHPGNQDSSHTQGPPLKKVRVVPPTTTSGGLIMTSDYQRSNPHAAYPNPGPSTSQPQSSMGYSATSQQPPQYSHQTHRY

[19] = Clearance in Beagle dog plasma at 1 or 4 umol/kg, iv or 10 umol/kg, po; type: ADME, organism-based, Canis lupus familiaris
COLO 205 [20] = assay: Potentiation of gemcitabine-induced antitumor activity against human COLO205 cells xenografted in nude mouse assessed as tumor growth inhibition at 50 mg/kg, po for 1 week followed by drug cessation measured after 14 days; type: functional, organism-based
[21] = AUC in nude mouse at 50 mg/kg, po; type: ADME, organism-based; conditions: in vivo
[22] = Oral bioavailability in Beagle dog at 10 umol/kg; type: ADME, organism-based, Canis lupus familiaris; conditions: in vivo
COLO 205 [23] = assay: Antitumor activity against human COLO205 cells xenografted in nude mouse assessed as tumor growth inhibition at 50 mg/kg, po for 2 days per week; type: functional, organism-based
P12 [24] = assay: Inhibition of IGF1R phosphorylation in mouse P12 cells allografted in po dosed nu/nu mouse administered as single dose measured after 1 to 2 hrs post dosing; type: functional, organism-based
COLO 205 [25] = assay: Potentiation of gemcitabine-induced antitumor activity against human COLO205 cells xenografted in nude mouse assessed as increase in stasis at 50 mg/kg, po for 1 week; type: functional, organism-based
P12 [26] = assay: Antitumor activity against mouse P12 cells allografted in nu/nu mouse assessed as tumor growth inhibition at 12.5 to 25 mg/kg, po qd for 7 days; type: functional, organism-based
[27] = Volume of distribution at steady state in Beagle dog at 1 or 4 umol/kg, iv or 10 umol/kg, po; type: ADME, organism-based, Canis lupus familiaris; conditions: in vivo, read-out: Vdss
Mus musculus = assay: T>IC50 for IGF1R in nude mouse at 50 mg/kg, po
COLO 205 [28] = assay: Potentiation of gemcitabine-induced antitumor activity against human COLO205 cells xenografted in nude mouse assessed as tumor growth inhibition at 25 mg/kg, po for 2 weeks; type: functional, organism-based
[29] = Cmax in nude mouse at 50 mg/kg, po; type: ADME, organism-based; set-up: dose 50 mg/kg, route oral; conditions: in vivo

solubility thermodynamic at 24 h [1]: 31 µM (≈ 15.3 µg/mL)
logD [2]: 2.8
Compound: COCC(=O)N1CCC(n2nc(C)c(Nc3ncc(Cl)c(-c4cnn5ccccc45)n3)c2C)CC1

logD [2]: 2.8
Compound: CC(=O)N1CCC(n2nc(C)c(Nc3ncc(Cl)c(-c4cnc5ccccn45)n3)c2C)CC1

solubility thermodynamic at 24 h [1]: 91 µM (≈ 38.5 µg/mL)
logD [2]: 1.2
Compound: Cc1nn(C2CCNCC2)c(C)c1Nc1ncc(Cl)c(-c2cnn3ccccc23)n1

solubility thermodynamic at 24 h [1]: 15 µM (≈ 7.41 µg/mL)
logD [2]: 3.2
Compound: CNC(=O)CN1CCC(n2nc(C)c(Nc3ncc(Cl)c(-c4cnn5ccccc45)n3)c2C)CC1

solubility thermodynamic at 24 h [1]: 9 µM (≈ 4.06 µg/mL)
clearance [3]: 62 mL/min/kg
hepatocyte CLint [4]: 48 µL/min/1e6 cells
logD [2]: 3.2
bioavailability [5]: 9%
Vd [6]: 1.6 L/kg
fraction unbound [7]: 0.072
Compound: CC(=O)N1CCC(n2cc(Nc3ncc(Cl)c(-c4cnn5ccccc45)n3)c(C)n2)CC1

logD [2]: 3.3
Compound: CCc1c(Nc2ncc(Cl)c(-c3cnn4ccccc34)n2)cnn1C1CCN(C(C)=O)CC1

logD [2]: 1.1
Compound: Cc1nn(C2CCNCC2)cc1Nc1ncc(Cl)c(-c2cnc3ccccn23)n1

solubility thermodynamic at 24 h [1]: 670 µM (≈ 331 µg/mL)
logD [2]: 1.7
Compound: Cc1nn(C2CCN(C(=O)[C@H](C)N)CC2)c(C)c1Nc1ncc(Cl)c(-c2cnn3ccccc23)n1

pIC50 [8]: 6.87
logD [2]: 2.8
Compound: CC(=O)N1CCC(n2cc(Nc3ncc(Cl)c(-c4cnc5ccccn45)n3)c(C)n2)CC1

solubility thermodynamic at 24 h [1]: 1 µM (≈ 0.478 µg/mL)
pIC50 (Cytochrome P450 3A4): > 6.00
pIC50 [8]: 5.99
logD [2]: 3.7
Compound: COc1cc(N2CCN(C(C)=O)CC2)ccc1Nc1ncc(Cl)c(-c2cnn3ccccc23)n1

bioavailability [9]: 61%
solubility thermodynamic at 24 h [1]: 4 µM (≈ 1.86 µg/mL)
hepatocyte CLint [4]: 23 µL/min/1e6 cells
clearance [10]: 18 mL/min/kg
logD [2]: 3.1
Vd [11]: 1.3 L/kg
hepatocyte CLint [12]: 9.6 µL/min/1e6 cells
hepatocyte CLint [13]: 8.9 µL/min/1e6 cells
fraction unbound [7]: 0.086
fraction unbound [14]: 0.12
Compound: CC(=O)N1CCC(n2nc(C)c(Nc3ncc(Cl)c(-c4cnn5ccccc45)n3)c2C)CC1

logD [2]: 3.3
Compound: COc1nn(C2CCN(C(C)=O)CC2)cc1Nc1ncc(Cl)c(-c2cnn3ccccc23)n1

logD [2]: 2.9
Compound: COc1nn(C2CCN(C(C)=O)CC2)cc1Nc1ncc(Cl)c(-c2cnc3ccccn23)n1

solubility thermodynamic at 24 h [1]: 510 µM (≈ 259 µg/mL)
logD [2]: 2.9
Compound: Cc1nn(C2CCN(CC(=O)N(C)C)CC2)c(C)c1Nc1ncc(Cl)c(-c2cnn3ccccc23)n1

logD [2]: 2.7
Compound: CC(=O)N1CCC(n2ncc(Nc3ncc(Cl)c(-c4cnc5ccccn45)n3)c2C)CC1

solubility thermodynamic at 24 h [1]: 260 µM (≈ 125 µg/mL)
logD [2]: 1.3
Compound: Cc1nn(C2CCN(C(=O)CN)CC2)c(C)c1Nc1ncc(Cl)c(-c2cnn3ccccc23)n1

pIC50 [15]: 7.43
pIC50 [16]: 7.18
pIC50 [17]: 7.68
pIC50 [8]: 7.60
logD [2]: 3.1
pIC50 [18]: 7.38
Compound: CC(=O)N1CCC(n2cc(Nc3ncc(Cl)c(-c4cnc5ccccn45)n3)cn2)CC1

solubility thermodynamic at 24 h [1]: > 1000 µM
logD [2]: 1.4
Compound: CNCC(=O)N1CCC(n2nc(C)c(Nc3ncc(Cl)c(-c4cnn5ccccc45)n3)c2C)CC1

bioavailability [9]: 58%
solubility thermodynamic at 24 h [1]: 17 µM (≈ 8.41 µg/mL)
clearance [19]: 7 mL/min/kg
AUC [21]: 30 µM·h
hepatocyte CLint [4]: 21 µL/min/1e6 cells
clearance [10]: 15 mL/min/kg
bioavailability [22]: 38%
logD [2]: 2.9
Vd [11]: 0.8 L/kg
Vd [27]: 1.3 L/kg
hepatocyte CLint [12]: 8.1 µL/min/1e6 cells
hepatocyte CLint [13]: < 3 µL/min/1e6 cells
fraction unbound [7]: 0.18
Cmax [29]: 12 µM
fraction unbound [14]: 0.12
Compound: Cc1nn(C2CCN(C(=O)[C@@H](C)O)CC2)c(C)c1Nc1ncc(Cl)c(-c2cnn3ccccc23)n1
TGI (COLO 205 [20]): Active
TGI (COLO 205 [23]): Active
inhibition (P12 [24]): Dose-dependent effect
Activity (COLO 205 [25]): Active
TGI (P12 [26]): Active
Time (Mus musculus): 8 h
TGI (COLO 205 [28]): Active

bioavailability [9]: 6%
solubility thermodynamic at 24 h [1]: 9 µM (≈ 4.06 µg/mL)
clearance [19]: 6 mL/min/kg
hepatocyte CLint [4]: 77 µL/min/1e6 cells
clearance [10]: 45 mL/min/kg
bioavailability [22]: 63%
logD [2]: 3.2
Vd [11]: 0.4 L/kg
Vd [27]: 0.7 L/kg
hepatocyte CLint [12]: 4.8 µL/min/1e6 cells
hepatocyte CLint [13]: < 3 µL/min/1e6 cells
fraction unbound [7]: 0.057
fraction unbound [14]: 0.081
Compound: CC(=O)N1CCC(n2ncc(Nc3ncc(Cl)c(-c4cnn5ccccc45)n3)c2C)CC1

logD [2]: 3.4
Compound: CCc1nn(C2CCN(C(C)=O)CC2)cc1Nc1ncc(Cl)c(-c2cnn3ccccc23)n1

solubility thermodynamic at 24 h [1]: 17 µM (≈ 8.41 µg/mL)
logD [2]: 2.8
Compound: Cc1nn(C2CCN(C(=O)[C@H](C)O)CC2)c(C)c1Nc1ncc(Cl)c(-c2cnn3ccccc23)n1

bioavailability [9]: 81%
solubility thermodynamic at 24 h [1]: 2 µM (≈ 0.962 µg/mL)
clearance [19]: 5 mL/min/kg
hepatocyte CLint [4]: 12 µL/min/1e6 cells
clearance [10]: 8 mL/min/kg
bioavailability [22]: 6%
logD [2]: 2.6
Vd [11]: 1.2 L/kg
Vd [27]: 1.6 L/kg
hepatocyte CLint [12]: 6.4 µL/min/1e6 cells
hepatocyte CLint [13]: < 3 µL/min/1e6 cells
fraction unbound [7]: 0.091
fraction unbound [14]: 0.12
Compound: Cc1nn(C2CCN(C(=O)CO)CC2)c(C)c1Nc1ncc(Cl)c(-c2cnn3ccccc23)n1

logD [2]: 0.9
Compound: Cc1c(Nc2ncc(Cl)c(-c3cnc4ccccn34)n2)cnn1C1CCNCC1

solubility thermodynamic at 24 h [1]: 620 µM (≈ 306 µg/mL)
logD [2]: 1.7
Compound: Cc1nn(C2CCN(C(=O)[C@@H](C)N)CC2)c(C)c1Nc1ncc(Cl)c(-c2cnn3ccccc23)n1

solubility thermodynamic at 24 h [1]: 37 µM (≈ 17.3 µg/mL)
logD [2]: 2.5
Compound: Cc1nn(C2CCN(CCO)CC2)c(C)c1Nc1ncc(Cl)c(-c2cnn3ccccc23)n1

logD [2]: 3.5
Compound: CCOc1nn(C2CCN(C(C)=O)CC2)cc1Nc1ncc(Cl)c(-c2cnn3ccccc23)n1
